Results as given in US20070173450A1, “PROCESS FOR THE SYNCHRONIZATION OF OVULATION FOR TIMED BREEDING WITHOUT HEAT DETECTION” (priority 2003, published 2007).

Tests used:
Assay type in all cases: in vivo, swine
postpartum sows [1] = assay: Single timed deslorelin injection 96 h post-weaning, single timed insemination without estrus detection; conditions: 50 mcg deslorelin in SAIB 96 h post-weaning
Description: Approximately 170 postpartum sows were randomly divided into two equal groups comprised of controls and treated. Following weaning, the controls were detected for estrus and bred following the normal standard operating procedures for the farms on which they resided. The treated sows received a 50 mcg dose of deslorelin in SAIB at 96 hours post-weaning and were bred with a single insemination 28+/−2 hours later with no regard to estrus detection. The sows were examined for pregnancy by ultrasound at 21 days and slaughtered around 28 days post breeding. The entire reproductive tract was removed and corpora lutea and embryos were counted.

mature postpartum sows = assay: Intravulvar deslorelin at estrus detection in mature postpartum sows, AI breeding; conditions: live piglets born per litter, treated versus control
Description: Sows were assigned randomly in blocks of two to either control or to be injected intravulvar with 50 mcg of deslorelin in SAIB at the time of estrus detection for sows first detected in estrus in the a.m. and 12 hours later for those first detected in estrus in the p.m. Treated animals were bred AI upon detected estrus and again 24 hours later if still in estrus. Controls received a saline injection on first detected estrus behavior estrus detection and were bred according to the farm's normal procedures.

postpartum sows [2] = assay: Litter size after deslorelin treatment in sows at three farm sites; conditions: Tables 3-5, three farm sites, regardless of estrus detection
Excerpt: Postpartum sows were randomly distributed into three different groups comprised of Controls, Treatment 1, and Treatment 2, with the exception of Site 3, which was divided into two groups, Control and Treatment 2. Control sows were detected for estrus following weaning, and bred following the normal standard operating procedures for the farms on which they resided. Treatment 1 sows were detected for estrus following weaning, and received a 50 mcg dose of deslorelin in the morning when standing and were bred by AI 4 hours later and again at 24+/−2 hours later. Treatment 2 sows received a 50 mcg dose of deslorelin in SAIB at 96 or 120 hours post-weaning and were bred with a single insemination 28+/−2 hours later with no regard to estrus detection.

CCNC(=O)[C@@H]1CCCN1C(=O)[C@H](CCCN=C(N)N)NC(=O)[C@H](CC(C)C)NC(=O)[C@@H](Cc1c[nH]c2ccccc12)NC(=O)[C@H](Cc1ccc(O)cc1)NC(=O)[C@H](CO)NC(=O)[C@H](Cc1c[nH]c2ccccc12)NC(=O)[C@H](Cc1cnc[nH]1)NC(=O)[C@@H]1CCC(=O)N1 [Deslorelin, deslorelin]
Pregnancy Rate (postpartum sows [1]; single AI 28+/-2 h later, no estrus detection): 71% | Embryo Survival (postpartum sows [1]; slaughter around 28 days post breeding): 64% | Sows Pregnant (postpartum sows [1]; of 84 in group, single AI 28+/-2 h later, no estrus detection): 60 | Live piglet number, Deslorelin versus Saline sows (greater by) (mature postpartum sows): Live piglet number 0.6> in Deslorelin versus Saline sows. | litter sizes (in words) (postpartum sows [2]): normal litter sizes
